# Data reported in patent US20220026415A1, “A METHOD FOR SCREENING A THERAPEUTIC AGENT FOR CANCER USING BINDING INHIBITOR OF CYCLIN-DEPENDENT KINASE 1 (CDK1)-CYCLIN B1 AND RETINOIC ACID RECEPTOR RESPONDER 1 (RARRES1) GENE KNOCKOUT ANIMAL MODEL” (NATIONAL CANCER CENTER, priority 2018, published 2022).
# Where a SMILES comes first, the peptide text is derived from it. The star is where a group is joined. Cbz = O=C(OCc1ccccc1)*
# What was measured:
# CDK1 protein = test: Amount of CDK1 protein in cells transfected with RARRES1 and CDK1, treated with protein degradation inhibitors; assay type: cell-based; conditions: cells transfected with RARRES1 along with CDK1
# Procedure: […]
# In addition, when cells were transfected with RARRES1 along with CDK1 using the method of Example 1-1, the amount of the CDK1 protein was reduced. To examine how a quantitative change in the CDK1 protein was regulated, cells were treated with protein degradation inhibitors.
# RARRES1 expression = test: Restoration of RARRES1 expression by DNA methylation inhibitor, RT-PCR; assay type: cell-based, human; conditions: for tested cell lines showing restored RARRES1 expression in a dose-dependent manner: 5, 25 and 100 uM for 5 days
# Procedure: Total RNA was extracted from human cancer cell lines including prostate cancer, lung cancer, and breast cancer by using a TRIzol reagent (Invitrogen) according to the manufacturer's instructions, and 1 ug of total RNA was converted into cDNA with a Superscript® reverse transcriptase (Invitrogen). Primers used for human DNA were as follows: RARRES1-1-F ([…]), RARRES1-1-R ([…]), RARRES1-2-F ([…]), RARRES1-2-R ([…]), Cyclin B1-F ([…]), Cyclin B1-R ([…]), Actin-F ([…]), and Actin-R ([…]), and the primers respectively yielded PCR products with predicted sizes of 327 bp, 359 bp, 347 bp, and 626 bp. Primers used for mouse DNA were as follows: Rarres1-F([…]), Rarres1-R ([…]), Gapdh-F (TGCACCACCAACTGCTTA), and Gapdh-R (GGATGCAGGGATGATGTTC), and these primers respectively yielded PCR products with predicted sizes of 653 bp and 177 bp.
# To determine whether promoter methylation was associated with the silencing of the RARRES1 expression in cancer cells, cells were treated with 5-aza-2′-deoxycytidine (5-aza-2-dC; 5, 25, and 100 uM) as an inhibitor of DNA methylation for 5 days.
# [1] = system: embryonic epithelial cells; test: Spheroid-formation assay with or without CDK1 inhibitor; assay type: cell-based, mouse
# Procedure: Mouse embryo fibroblasts (MEFs) and mouse embryo epithelial cells (MEEs) were derived from 13.5-day-old embryos as previously described. That is, after removal of the head and internal organs, embryos were rinsed with phosphate buffered saline (PBS), minced, and treated with trypsin/EDTA to obtain single cells. The MEFs was resuspended in DMEM containing 10% FBS, 2 mM L-glutamine, 0.1 mM MEM nonessential amino acids, 55 uM beta-mercaptoethanol, and 100 IU/ml penicillin, and 100 ug/ml streptomycin. Cell media and reagents were obtained from GIBCO (Paisley, England). The MEEs were cultured in a D-MEM/F-12 medium containing 1% FBS, 1 mg of insulin, 1 mg of hydrocortisone, 12.5 μg of EGF, 10 mg of ascorbic acid, 10 mg of transferin, 14.1 mg of phosphoethanolamine, Na selenite, 1 μg of cholera toxin, 6.5 μg of triiodo thyronine, 35 mg of bovine pituitary extract, ethanolamine, 50 IU/ml of penicillin, and 50 ug/ml of streptomycin. The cells were incubated at 37° C. in a 5% CO2-humidified chamber. After disintegration of the embryos, plating was considered passage 0. All experiments were carried out using cells within passage 5 from three different batches. The genotypes of the MEFs and MEEs were confirmed by genotyping PCR. At least three independently generated cell lines per genotype were used.
# In spheroid-formation assay, as mentioned above, advanced DMEM/F12 media used for embryonic epithelial cell culture were employed. The cells from the embryo of Rarres1^+/+ and Rarres1^−/− mice were suspended and seeded in […] with or without RO3306, CDK1 inhibitor, in a 24-well plate at a density of 2,000 or 5,000 cells per well. The size and number of spheres formed while adding 300 μl of a medium once three to four days were measured.
# Rarres1 KO MEFs = test: Nocodazole treatment of MEFs, flow cytometry, cell counting and western blotting; assay type: cell-based, mouse
# Procedure: For analysis of cell cycles or sub-G1 DNA contents, cells were immobilized with 80% ice-cold ethanol, and stored at 4° C. The cells were stained with PBS containing 50 ug/ml of propidium iodide (PI) and 100 ug/ml of RNase A at 37° C. for 30 minutes. DNA content was analyzed by FACS Calibur flow cytometry and the results thereof were analyzed using Cellquest software (Becton-Dickinson Immunocytometry Systems, San Diego, Calif.) and Modfit LT 3.3 software. At least 10,000 cells were analyzed per sample.
# Growth was examined using MEFs derived from 13.5-day-old embryos. Cells were plated on a 6-well plate at a density of 20,000 cells/well, and then the number of the cells was counted every day from the following day for 5 days. To examine cell survival in response to nocodazole, which is a cell division inhibitor, cells were treated with 50 ng/ml or 100 ng/ml of nocodazole for 48 hours and cultured. Subsequently, the cells were treated with trypsin/EDTA and detached, followed by cell counting.
# It was determined whether a mitotic stress-inducing drug such as nocodazole affects Rarres1 KO MEFs. MEF cells were treated with nocodazole (50 ng/ml or 100 ng/ml) or DMSO for 48 hours, and flow cytometry and cell counting according to Example 1-10 were performed thereon.
# [2] = some cancer cells (CWR22rv, T47D)
smiles,measurement,setting,value
"CO/C1=C\C(C)=C\[C@@H](C)[C@@H](O)[C@@H](C)C/C(C)=C/C=C/[C@H](OC)[C@@H]([C@@H](C)[C@@H](O)[C@H](C)[C@@]2(O)C[C@@H](O)[C@H](C)[C@@H](C(C)C)O2)OC1=O [BafA1, Bafilomycin A1]","amount of the CDK1 protein, which had been decreased by RARRES1",CDK1 protein,increased again
"Nc1ncn([C@H]2C[C@H](O)[C@@H](CO)O2)c(=O)n1 [5-aza-2-dC, 5-aza-2′-deoxycytidine]",RARRES1 expression after treatment,RARRES1 expression; Calu3 and HCC70 cells having high mRNA levels of RARRES1,failed to have reintroduced RARRES1 expression
same,mRNA level of the RARRES1 gene after treatment,RARRES1 expression; JIMT-1 cells,reduced
same,tested cell lines showing restored RARRES1 expression in a dose-dependent manner,RARRES1 expression; breast cancer cell lines (8/10),80%
same,tested cell lines showing restored RARRES1 expression in a dose-dependent manner,RARRES1 expression; lung cancer cell lines (4/5),80%
same,tested cell lines showing restored RARRES1 expression in a dose-dependent manner,RARRES1 expression; prostate cancer cell lines (4/4),100%
same,RARRES1 isoform 1 after treatment,RARRES1 expression; [2],increased
same,RARRES1 isoform 2 after treatment,RARRES1 expression; [2],not detected
CC(C)C[C@@H](C=O)NC(=O)[C@H](CC(C)C)NC(=O)[C@H](CC(C)C)NC(=O)OCc1ccccc1 [MG132] (Cbz-Leu-Leu-Leu-aldehyde),"amount of the CDK1 protein, which had been decreased by RARRES1",CDK1 protein,still decreased
O=C1NC(=NCc2cccs2)S/C1=C\c1ccc2ncccc2c1 [RO3306],overall spheroid formation,"[1]; RO3306-treated versus not treated, cells from Rarres1+/+ and Rarres1-/- embryos",significantly reduced
same,sphere formation under RO3306,[1]; embryonic epithelial cells from Rarres1-deficient mice,formed spheres
same,sphere formation under RO3306,[1]; embryonic epithelial cells of the control mice,barely formed spheres
COC(=O)Nc1nc2ccc(C(=O)c3cccs3)cc2[nH]1 [nocodazole],cleavage of PARP and Caspase 3,"Rarres1 KO MEFs; KO cells compared to WT cells, nocodazole treated",decreased
same,number of the cells after nocodazole treatment,"Rarres1 KO MEFs; Rarres1-deficient MEFs versus WT MEFs, 50 or 100 ng/ml, 48 hours",less reduced
same,cell death induced by nocodazole,"Rarres1 KO MEFs; Rarres1-deficient MEFs versus WT MEFs, 50 or 100 ng/ml, 48 hours, dose-dependent",significantly reduced
